Reference: patent US9217014B2, “Antifungal agents and uses thereof” (Cidara Therapeutics, Inc., priority 2011, dated 2015)
Where two headings read alike, the source gives them in different places.

System: C. albicans R303
Test: mouse candidiasis infection model, IP administration, kidney fungal burden
Format: in vivo
Details: for log reduction at 0.5 mg/kg / log reduction at 1.5 mg/kg / log reduction at 4.5 mg/kg / log reduction at 5 mg/kg: Candida albicans, R303, ip, 24 h, read-out: Difference from 24-h control; for Mean log10 CFU/kidneys (±SEM) / Mean log10 CFU/kidneys (±SD): kidneys 24 h after infection; for log reduction at 5 mg/kg / Mean log10 CFU/kidneys (±SD): First run, IP 5 mg/kg; for Mean log10 CFU/kidneys (±SD): neutropenic mice; for overall performance in reducing C. albicans CFUs in the kidneys of the mice: conclusion over all runs
Description: The objective of these studies was to evaluate the efficacy of test compounds in the mouse candidiasis infection model. Amounts of test articles are uncorrected.
The strain, C. albicans R303 was transferred from frozen storage onto Sabauroud dextrose agar (SDA) plates and grown for ˜24 hr at 35° C. The inoculum was prepared by transferring colonies from the plate to phosphate buffered saline (PBS) and the concentration adjusted to approximately 10^6 CFU/mL with the aid of a spectrophotometer. The stock was diluted 1:9 to prepare the inoculum. Prior to each run the concentration was verified using the dilution plate count method.
Female CD-1 mice were used in this study. The animals were approximately seven-weeks-old at the start of the study and weighed about 15-30 g.
Mice were made neutropenic with IP injections of cyclophosphamide (150 mg/kg in 10 mL/kg) at 4 and 1 day before inoculation. Each animal was inoculated with the appropriate concentration by injecting 0.1 mL of inoculum into a tail vein. The test compounds were administered IP at 2 hr after infection.
In a typical procedure, the kidneys were collected from four mice in control group 1 (untreated) at 2 hr after infection, and from another four mice in control group 2 (untreated) at 24 hr after infection. Kidneys were removed aseptically from each mouse and were combined in a sterile tube. An aliquot (2 mL) of sterile PBS was added to each tube and the contents homogenized with a tissue homogenizer (Polytron 3100). Serial dilutions of the tissue homogenates were conducted and 0.1 mL aliquots were spread on SDA plates and the plates incubated at 35° C. overnight. The CFU/kidneys were determined from colony counts. Data were analyzed using one-way ANOVA with either the Tukey-Kramer Multiple Comparisons Test or Dunnett Test (GraphPad InStat version 3.06, GraphPad Software, San Diego, Calif.).
The data reported below are the average of four mice. Each run included a separate control and each is tabulated separately.

| Compound | overall performance in reducing C. albicans CFUs in the kidneys of the mice | log reduction at 0.5 mg/kg (Fourth run, IP 0.5 mg/kg) | log reduction at 1.5 mg/kg (Fourth run, IP 1.5 mg/kg) | Mean log10 CFU/kidneys (±SEM) (Fourth run, IP 0.5 mg/kg) [log10 CFU/kidneys] | Mean log10 CFU/kidneys (±SEM) (Fourth run, IP 1.5 mg/kg) [log10 CFU/kidneys] | further results |
| --- | --- | --- | --- | --- | --- | --- |
| CC[C@H](C)C[C@H](C)CCCCCCCCC(=O)N[C@H]1C[C@@H](O)[C@@H](NCCN)NC(=O)[C@@H]2[C@@H](O)CCN2C(=O)[C@H]([C@H](O)CCN)NC(=O)[C@H]([C@H](O)[C@@H](O)c2ccc(O)cc2)NC(=O)[C@@H]2C[C@@H](O)CN2C(=O)[C@H]([C@@H](C)O)NC1=O [caspofungin, reference compound] | – | – | – | – | – | log reduction at 0.5 mg/kg (Third run, IP 0.5 mg/kg): 4.88; log reduction at 1.5 mg/kg (Third run, IP 1.5 mg/kg): 4.48; log reduction at 4.5 mg/kg (Third run, IP 4.5 mg/kg): 5.2; Mean log10 CFU/kidneys (±SEM) (Third run, IP 0.5 mg/kg): 0.33 ± 0.33 log10 CFU/kidneys; Mean log10 CFU/kidneys (±SEM) (Third run, IP 1.5 mg/kg): 0.73 ± 0.42 log10 CFU/kidneys; Mean log10 CFU/kidneys (±SEM) (Third run, IP 4.5 mg/kg): 0.00 ± 0.00 log10 CFU/kidneys |
| CCCCCOc1ccc(-c2ccc(-c3ccc(C(=O)N[C@H]4C[C@@H](O)C(OCCN(C)C)NC(=O)C5[C@@H](O)[C@@H](C)CN5C(=O)C([C@@H](C)O)NC(=O)C([C@H](O)[C@@H](O)c5ccc(O)cc5)NC(=O)C5C[C@@H](O)CN5C(=O)C([C@@H](C)O)NC4=O)cc3)cc2)cc1 (some centres unmarked) [compound 2] | performed moderately | – | – | – | – | log reduction at 5 mg/kg: 3.6; Mean log10 CFU/kidneys (±SD): 1.60 ± 0.35 log10 CFU/kidneys |
| CCCCCOc1ccc(-c2ccc(-c3ccc(C(=O)N[C@H]4C[C@@H](O)C(OCCNC)NC(=O)C5[C@@H](O)[C@@H](C)CN5C(=O)C([C@@H](C)O)NC(=O)C([C@H](O)[C@@H](O)c5ccc(O)cc5)NC(=O)C5C[C@@H](O)CN5C(=O)C([C@@H](C)O)NC4=O)cc3)cc2)cc1 (some centres unmarked) [compound 3] | performed moderately | – | – | – | – | log reduction at 5 mg/kg: 3.63; Mean log10 CFU/kidneys (±SD): 1.57 ± 0.20 log10 CFU/kidneys |
| CCCCCOc1ccc(-c2ccc(-c3ccc(C(=O)N[C@H]4C[C@@H](O)C(OCCN)NC(=O)C5[C@@H](O)[C@@H](C)CN5C(=O)C([C@@H](C)O)NC(=O)C([C@H](O)[C@@H](O)c5ccc(O)cc5)NC(=O)C5C[C@@H](O)CN5C(=O)C([C@@H](C)O)NC4=O)cc3)cc2)cc1 (some centres unmarked) [compound 4] | performed strongly | – | – | – | – | log reduction at 5 mg/kg: 4.47; log reduction at 0.5 mg/kg (Second run, IP 0.5 mg/kg): 1.5; log reduction at 4.5 mg/kg (Second run, IP 4.5 mg/kg): 4.22; Mean log10 CFU/kidneys (±SD): 0.73 ± 0.85 log10 CFU/kidneys; Mean log10 CFU/kidneys (±SEM) (Second run, IP 0.5 mg/kg): 3.38 ± 0.10 log10 CFU/kidneys; Mean log10 CFU/kidneys (±SEM) (Second run, IP 1.5 mg/kg): 0.65 ± 0.38 log10 CFU/kidneys; Mean log10 CFU/kidneys (±SEM) (Second run, IP 4.5 mg/kg): 0.65 ± 0.38 log10 CFU/kidneys |
| CCCCCOc1ccc(-c2ccc(-c3ccc(C(=O)N[C@H]4C[C@@H](O)C(OCCOCC[N+](C)(C)C)NC(=O)C5[C@@H](O)[C@@H](C)CN5C(=O)C([C@@H](C)O)NC(=O)C([C@H](O)[C@@H](O)c5ccc(O)cc5)NC(=O)C5C[C@@H](O)CN5C(=O)C([C@@H](C)O)NC4=O)cc3)cc2)cc1 (some centres unmarked) [compound 6] | performed strongly | – | – | – | – | log reduction at 0.5 mg/kg (Second run, IP 0.5 mg/kg): 0.13; log reduction at 1.5 mg/kg (Second run, IP 1.5 mg/kg): 3.27; log reduction at 4.5 mg/kg (Second run, IP 4.5 mg/kg): 4.87; Mean log10 CFU/kidneys (±SEM) (Second run, IP 0.5 mg/kg): 4.75 ± 0.19 log10 CFU/kidneys; Mean log10 CFU/kidneys (±SEM) (Second run, IP 1.5 mg/kg): 1.60 ± 0.17 log10 CFU/kidneys; Mean log10 CFU/kidneys (±SEM) (Second run, IP 4.5 mg/kg): 0.00 ± 0.00 log10 CFU/kidneys |
| CCCCCOc1ccc(-c2ccc(-c3ccc(C(=O)N[C@H]4C[C@@H](O)C(OCCNCCN)NC(=O)C5[C@@H](O)[C@@H](C)CN5C(=O)C([C@@H](C)O)NC(=O)C([C@H](O)[C@@H](O)c5ccc(O)cc5)NC(=O)C5C[C@@H](O)CN5C(=O)C([C@@H](C)O)NC4=O)cc3)cc2)cc1 (some centres unmarked) [compound 7] | performed strongly | 0.78 | 3.55 | 4.33 ± 0.17 | 1.55 ± 0.19 | – |
| CCCCCOc1ccc(-c2ccc(-c3ccc(C(=O)N[C@H]4C[C@@H](O)C(NCCOC)NC(=O)C5[C@@H](O)[C@@H](C)CN5C(=O)C([C@@H](C)O)NC(=O)C([C@H](O)[C@@H](O)c5ccc(O)cc5)NC(=O)C5C[C@@H](O)CN5C(=O)C([C@@H](C)O)NC4=O)cc3)cc2)cc1 (some centres unmarked) [compound 8] | performed poorly | 0.32 | 1.66 | 4.78 ± 0.15 | 3.45 ± 0.37 | – |
| CCCCCOc1ccc(-c2ccc(-c3ccc(C(=O)N[C@H]4C[C@@H](O)C(NCCOCCOC)NC(=O)C5[C@@H](O)[C@@H](C)CN5C(=O)C([C@@H](C)O)NC(=O)C([C@H](O)[C@@H](O)c5ccc(O)cc5)NC(=O)C5C[C@@H](O)CN5C(=O)C([C@@H](C)O)NC4=O)cc3)cc2)cc1 (some centres unmarked) [compound 9] | performed poorly | 0.07 | 1.02 | 5.04 ± 0.13 | 4.09 ± 0.23 | – |
| CCCCCOc1ccc(-c2ccc(-c3ccc(C(=O)N[C@H]4C[C@@H](O)C(NCCOCCOCCOCCOC)NC(=O)C5[C@@H](O)[C@@H](C)CN5C(=O)C([C@@H](C)O)NC(=O)C([C@H](O)[C@@H](O)c5ccc(O)cc5)NC(=O)C5C[C@@H](O)CN5C(=O)C([C@@H](C)O)NC4=O)cc3)cc2)cc1 (some centres unmarked) [compound 10] | performed poorly | 0.21 | 0.01 | 4.89 ± 0.06 | 5.09 ± 0.11 | – |
| CCCCCOc1ccc(-c2ccc(-c3ccc(C(=O)N[C@H]4C[C@@H](O)C(NCCOCCO)NC(=O)C5[C@@H](O)[C@@H](C)CN5C(=O)C([C@@H](C)O)NC(=O)C([C@H](O)[C@@H](O)c5ccc(O)cc5)NC(=O)C5C[C@@H](O)CN5C(=O)C([C@@H](C)O)NC4=O)cc3)cc2)cc1 (some centres unmarked) [compound 11] | performed moderately | 0.29 | 2.13 | 4.82 ± 0.20 | 2.98 ± 0.03 | – |
| CCCCCOc1ccc(-c2ccc(-c3ccc(C(=O)N[C@H]4C[C@@H](O)C(NCCOCCN)NC(=O)C5[C@@H](O)[C@@H](C)CN5C(=O)C([C@@H](C)O)NC(=O)C([C@H](O)[C@@H](O)c5ccc(O)cc5)NC(=O)C5C[C@@H](O)CC5C(=O)C([C@@H](C)O)NC4=O)cc3)cc2)cc1 (some centres unmarked) [compound 12] | performed strongly | 1.9 | 3.5 | 3.20 ± 0.11 | 1.60 ± 0.09 | – |
| CCCCCOc1ccc(-c2ccc(-c3ccc(C(=O)N[C@H]4C[C@@H](O)C(NCCOCCOCCN)NC(=O)C5[C@@H](O)[C@@H](C)CN5C(=O)C([C@@H](C)O)NC(=O)C([C@H](O)[C@@H](O)c5ccc(O)cc5)NC(=O)C5C[C@@H](O)CC5C(=O)C([C@@H](C)O)NC4=O)cc3)cc2)cc1 (some centres unmarked) [compound 13] | performed moderately | 2.29 | 2.8 | 2.81 ± 0.23 | 2.31 ± 0.19 | – |
